Experimental data: US10222370B2, “Screening assay for choice of prebiotic to prevent/treat gastrointestinal and systemic diseases” (Rush University Medical Center, priority 2014, dated 2019)

Tests used:
Format in all cases: cell-based, human
[1] = test system: T84 monolayers co-cultured with CD3/28-activated PBMC; test: T84/PBMC co-culture, barrier integrity by transepithelial electrical resistance (TER); conditions: apical exposure, 24 h and 48 h, vs medium control
Protocol: (§1) The T84 cells are grown in DMEM/F-12 (1:1) supplemented with GlutaMAX®, 10% fetal bovine serum and […] penicillin/streptomycin. (T84 cells (human colorectal carcinoma cell line, ATCC® CCL-248™, Manassas, Va., USA). T84 cells were seeded in 12-well transwell insert filters (Coming Inc., NY, USA) and cultured in T84 cell medium for 3-4 weeks till co-culture with PBMC. Transepithelial electrical resistance (TER) was measured during culture, which generally increases to >1500 Ω×cm^2 and becomes stable after 3-4 weeks of culture. When TER was ≥2000 Ω×cm^2, T84 monolayers 14 were co-cultured with 1.5×10^6 PBMC 16 in the basolateral chamber.
(§2) The PBMC 16 for use in the co-cultures are isolated from 20 mL fresh blood from healthy controls (n=6) and subjects with food allergy (n=8) (Table 1). The average age of healthy controls was 36 (range 24-54) vs. 51 (range 26-74) for food allergic subjects (P>0.05). PBMC were isolated by density gradient centrifugation using lymphocyte separation medium according to manufacturer's protocol (Cellgro, Mediatec, Inc., Manassas, Va., USA). PBMC were collected in RPMI1640 supplemented with L-glutamine (Gibco), 2.5% fetal bovine serum, 1% penicillin/streptomycin and 1% sodium pyruvate (Sigma, St. Louis, Mo., USA) (PBMC medium) at 1×10^6 cell/mL.
(§3) T84/PBMC co-cultures were maintained in PBMC medium. PBMC were stimulated using CD3 and CD28 antibodies (clone OKT3 and CD28.2, 0.2 μg/mL; eBioscience, San Diego, Calif., USA) and simultaneously IEC were stimulated apically with Pam3CSK4, LPS or type C CpG oligonucleotide M362 (Invivogen, San Diego, Calif., USA) as previously described. Cultures were maintained at 37° C./5% CO2 for indicated time points.
The barrier integrity of T84 monolayers was assessed by measuring the TER and paracellular permeability to 4 kDa FITC-dextran. In short, TER was measured using a dual electrode system designed for cell culture insert analysis (EVOM; World Precision Instruments, Sarasota, Fla.) prior to co-culture and at indicated time points during co-culture. Data is reported as percentage of the initial TER value measured before co-culture. For assessment of permeability, T84 monolayers were separated from PBMC and cultured in PBMC medium for 1 h. The monolayers were then apically exposed to 1 mg/mL 4 kDa FITC-dextran (Sigma) and basolateral supernatants were collected after 60 min. FITC-dextran was measured at excitation wavelength 485 nm and emission wavelength 520 nm. The 4 kDa FITC-dextran flux was expressed as pmol/(h×cm^2).
In some experiments, PBMC are stimulated using antibodies against CD3 and CD28 and T84 cell monolayers were simultaneously exposed to synthetic TLR ligands or fermentation product 12 (co-culture of stool samples without or with different prebiotics). SCFA content (acetate, propionate and butyrate) in the fermentation products (“Fermenta”) 12 was analyzed by HPLC. TER was measured at t=0 h, t=4 h, t=18 h and t=24 h to monitor changes in the barrier integrity of the T84 monolayers. Non-limiting example of prebiotics include commercially available inulin and fructose oligosaccharides (FOS) that promote production of Butyrate by intestinal bacteria, galactose oligosaccharides (GOS) that promote growth of bifidobacteria in the intestine or prebiotics like resistant starch, corn arbionoxylan that promotes propionate. Other prebiotics may also be used.

[2] = test system: T84 monolayers co-cultured with CD3/28-activated PBMC; test: T84/PBMC co-culture, paracellular permeability to 4 kDa FITC-dextran; conditions: PBMC from healthy controls; 48 h co-culture; vs medium control
Protocol: as §1, §2
T84/PBMC co-cultures were maintained in PBMC medium. […]
The barrier integrity of T84 monolayers was assessed by measuring the TER and paracellular permeability to 4 kDa FITC-dextran. In short, TER was measured using a dual electrode system designed for cell culture insert analysis (EVOM; World Precision Instruments, Sarasota, Fla.) prior to co-culture and at indicated time points during co-culture. Data is reported as percentage of the initial TER value measured before co-culture. […] FITC-dextran was measured at excitation wavelength 485 nm and emission wavelength 520 nm. The 4 kDa FITC-dextran flux was expressed as pmol/(h×cm^2).

T84/PBMC co-cultures = test: Cytokine production in T84/PBMC co-cultures with apical TLR ligands (ELISA); conditions: T84/PBMC, 24 h, mean ± SEM
Protocol: as §1, §2, §3
(§4) Cytokine levels were measured by ELISA. IL-6, IL-8, IL-10, IL-13, IFN-γ and TNF-α were measured using the Ready-Set-Go!® ELISA kit from eBioscience according to manufacturer's protocol (eBioscience, Inc., San Diego, Calif., USA).
(§5) To evaluate whether epithelial TLR ligation modulates cytokine production by the PBMC, basolateral supernatants were collected 24 h after co-culture. Exposure of CD3/28-activated PBMC in the absence of IEC to TLR ligands served as a control to evaluate the contribution of IEC in modulating the cytokine production by PBMC. First we evaluated the production of IFN-γ and IL-13 as a reflection of a Th1 and Th2 type effector response (Table 3). No significant changes in the production of IFN-γ or IL-13 were observed, though IFN-γ production by the PBMC from food allergic subjects tended to be lower in T84/PBMC co-cultures (P=0.093). […] This was not observed when PBMC were stimulated with CpG DNA in absence of T84 cells (FIG. 7B).

PBMC = test: Cytokine production by CD3/28-activated PBMC in absence of T84 cells (ELISA); conditions: for IFN-γ / IL-6 / IL-8 / IL-10 / IL-13 / TNF-α: PBMC in absence of T84 cells, 24 h, mean ± SEM; for IL-10/IL-13 ratio: absence of T84 cells
Protocol: as §2, §3, §4, §5

[3] = PBMC from food allergic subjects

LPS was tested, and the “TER of T84 monolayers” value [1, 3] was “did not affect”, the “TER of T84 monolayers” value ([1]; PBMC from healthy controls) was “did not affect” and the “permeability of T84 monolayers to 4 kDa FITC-dextran” value [2] was “increased the permeability”. It also gave an IL-6 (T84/PBMC co-cultures; FA (food allergy) PBMC) of 7410 ± 2112 pg/mL, an IFN-γ (T84/PBMC co-cultures; FA PBMC) of 4390 ± 1700 pg/mL and an IL-8 (T84/PBMC co-cultures; FA PBMC) of 17103 ± 4334 pg/mL. For the same substance, the IL-10 (T84/PBMC co-cultures; FA PBMC) was 777.6 ± 163.2 pg/mL, the IL-13 (T84/PBMC co-cultures; FA PBMC) was 33.8 ± 11.0 pg/mL and the TNF-α (T84/PBMC co-cultures; FA PBMC) was 2403 ± 516 pg/mL. For the same substance, the IL-6 (T84/PBMC co-cultures; HC (healthy control) PBMC) was 9040 ± 2424 pg/mL, the IFN-γ (T84/PBMC co-cultures; HC PBMC) was 10392 ± 2967 pg/mL and the IL-8 (T84/PBMC co-cultures; HC PBMC) was 23124 ± 5683 pg/mL. For the same substance, the IL-10 (T84/PBMC co-cultures; HC PBMC) was 632.7 ± 125.1 pg/mL, the IL-13 (T84/PBMC co-cultures; HC PBMC) was 31.3 ± 9.1 pg/mL and the TNF-α (T84/PBMC co-cultures; HC PBMC) was 2928 ± 712 pg/mL. For the same substance, the IFN-γ (PBMC; FA) was 2188 ± 908 pg/mL, the IL-6 (PBMC; FA) was 9909 ± 2073 pg/mL and the IL-8 (PBMC; FA) was 35682 ± 4770 pg/mL. For the same substance, the IL-10 (PBMC; FA) was 586 ± 159.4 pg/mL, the IL-13 (PBMC; FA) was 34.0 ± 10.7 pg/mL and the TNF-α (PBMC; FA) was 945.4 ± 294 pg/mL. For the same substance, the IFN-γ (PBMC; HC) was 6070 ± 2282 pg/mL, the IL-6 (PBMC; HC) was 12399 ± 2174 pg/mL and the IL-8 (PBMC; HC) was 43034 ± 2960 pg/mL. It also gave an IL-10 (PBMC; HC) of 545.4 ± 134.7 pg/mL, an IL-13 (PBMC; HC) of 28.3 ± 8.7 pg/mL and a TNF-α (PBMC; HC) of 2607 ± 1165 pg/mL. The IL-10/IL-13 ratio (PBMC; [3]) was “increased” and the IL-10/IL-13 ratio (PBMC; PBMC from healthy controls) was “enhanced”.
With Pam3CSK4 the “TER of T84 monolayers” value [1, 3] was “did not affect”, the “TER of T84 monolayers” value ([1]; PBMC from healthy controls) was “did not affect” and the “permeability of T84 monolayers to 4 kDa FITC-dextran” value [2] was “increased the permeability”. The IL-6 (T84/PBMC co-cultures; FA (food allergy) PBMC) was 5968 ± 1324 pg/mL, the IFN-γ (T84/PBMC co-cultures; FA PBMC) was 6533 ± 2125 pg/mL and the IL-8 (T84/PBMC co-cultures; FA PBMC) was 16854 ± 4954 pg/mL. For the same substance, the IL-10 (T84/PBMC co-cultures; FA PBMC) was 853.3 ± 212.9 pg/mL, the IL-13 (T84/PBMC co-cultures; FA PBMC) was 40.8 ± 12.1 pg/mL and the TNF-α (T84/PBMC co-cultures; FA PBMC) was 2251 ± 534 pg/mL. For the same substance, the IL-6 (T84/PBMC co-cultures; HC (healthy control) PBMC) was 7209 ± 1531 pg/mL, the IFN-γ (T84/PBMC co-cultures; HC PBMC) was 8614 ± 2455 pg/mL and the IL-8 (T84/PBMC co-cultures; HC PBMC) was 23052 ± 5527 pg/mL. For the same substance, the IL-10 (T84/PBMC co-cultures; HC PBMC) was 581.1 ± 110.7 pg/mL, the IL-13 (T84/PBMC co-cultures; HC PBMC) was 37.8 ± 9.2 pg/mL and the TNF-α (T84/PBMC co-cultures; HC PBMC) was 3073 ± 509 pg/mL. It also gave an IFN-γ (PBMC; FA) of 2824 ± 1163 pg/mL, an IL-6 (PBMC; FA) of 8073 ± 2055 pg/mL and an IL-8 (PBMC; FA) of 32940 ± 4869 pg/mL. The IL-10 (PBMC; FA) was 422.8 ± 98.6 pg/mL, the IL-13 (PBMC; FA) was 59.4 ± 15.2 pg/mL and the TNF-α (PBMC; FA) was 979.1 ± 244^ pg/mL. It also gave an IFN-γ (PBMC; HC) of 5663 ± 1768 pg/mL, an IL-6 (PBMC; HC) of 9472 ± 2153 pg/mL and an IL-8 (PBMC; HC) of 43737 ± 2856 pg/mL. The IL-10 (PBMC; HC) was 254.7 ± 135.4 pg/mL, the IL-13 (PBMC; HC) was 59.2 ± 17.0 pg/mL and the TNF-α (PBMC; HC) was 2206 ± 1155 pg/mL.
